Results taken from the supplement of paper PMC12420376.

Experiments:
[1] = tested on: OVCAR8; experiment: drug sensitivity score (DSS2) on cancer cell count; higher = more sensitive; extreme values may be limits of the assay; settings: 72 h
Summary of the method: (§1)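 Ovarian cancer cells were grown alone or in 1:1 direct co-culture with lung or skin fibroblasts. They were plated onto 384-well plates pre-spotted acoustically with 528 approved and investigational compounds at 5 concentrations, then treated for 72 h. Cells were fixed, immunostained for CK8/18 with Hoechst, and imaged at 10× (4 fields) to count cancer cells. A drug sensitivity score (DSS2) was derived in Breeze from 4-parameter logistic fits, with screen quality checked by Z'.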

[2] = tested on: KURAMOCHI; experiment: as above; settings: 72 h
Summary of the method: as §1

[3] = co-cultured fibroblast: BJHTERT
[4] = co-cultured fibroblast: none (monoculture)

SMILES | drug sensitivity score [1, 3] | drug sensitivity score ([1]; co-cultured fibroblast: WI38) | drug sensitivity score [1, 4] | drug sensitivity score [2, 3] | drug sensitivity score ([2]; co-cultured fibroblast: WI38) | drug sensitivity score [2, 4]
C[C@@H]1COC(Nc2ccc3ncnc(Nc4ccc(OCc5nccs5)c(Cl)c4)c3c2)=N1 [Varlitinib] | 0 DSS | 2 DSS | 1.4 DSS | 1.5 DSS | 2.1 DSS | 0 DSS
Clc1ccc(Nc2nnc(Cc3ccncc3)c3ccccc23)cc1 [Vatalanib] | 0.2 DSS | 0 DSS | 0 DSS | 0 DSS | 0.7 DSS | 0 DSS
C[C@]1(c2nc3c(C(N)=O)cccc3[nH]2)CCCN1 [Veliparib] | 5 DSS | 3.1 DSS | 0.5 DSS | 0.4 DSS | 0 DSS | 0 DSS
CCCS(=O)(=O)Nc1ccc(F)c(C(=O)c2c[nH]c3ncc(-c4ccc(Cl)cc4)cc23)c1F [Vemurafenib] | 0 DSS | 1.1 DSS | 1.3 DSS | 0 DSS | 0 DSS | 0.8 DSS
CC1(C)CCC(CN2CCN(c3ccc(C(=O)NS(=O)(=O)c4ccc(NCC5CCOCC5)c([N+](=O)[O-])c4)c(Oc4cnc5[nH]ccc5c4)c3)CC2)=C(c2ccc(Cl)cc2)C1 [Venetoclax] | 0 DSS | 0 DSS | 2.3 DSS | 0 DSS | 0 DSS | 0 DSS
O=C(/C=C\n1cnc(-c2cc(C(F)(F)F)cc(C(F)(F)F)c2)n1)NNc1ccccn1 [Verdinexor] | 10.2 DSS | 7.1 DSS | 16.6 DSS | 8.4 DSS | 9.1 DSS | 16.7 DSS
CCCCOc1nc(N)c2c(n1)N(Cc1cccc(CN3CCCC3)c1)CC(=O)N2 [Vesatolimod] | 0.4 DSS | 0 DSS | 0 DSS | 2.9 DSS | 0 DSS | 0 DSS
COc1cccc(-c2ccc(NC(=O)C3=C(C(=O)O)CCC3)c(F)c2)c1 [Vidofludimus] | 0 DSS | 1.6 DSS | 2 DSS | 1.5 DSS | 0.4 DSS | 1.9 DSS
CC[C@]1(O)C[C@@H]2CN(CCc3c([nH]c4ccccc34)[C@@](C(=O)OC)(c3cc4c(cc3OC)N(C)[C@H]3[C@@](O)(C(=O)OC)[C@H](OC(C)=O)[C@]5(CC)C=CCN6CC[C@]43[C@@H]65)C2)C1 [Vinblastine] | 18.9 DSS | 5.2 DSS | 15.7 DSS | 4.9 DSS | 4.2 DSS | 20.8 DSS
CC[C@]1(O)C[C@H]2CN(CCc3c([nH]c4ccccc34)[C@@](C(=O)OC)(c3cc4c(cc3OC)N(C=O)[C@H]3[C@@](O)(C(=O)OC)[C@H](OC(C)=O)[C@]5(CC)C=CCN6CC[C@]43[C@@H]65)C2)C1 [Vincristine] | 11.5 DSS | 9.3 DSS | 11.9 DSS | 7.5 DSS | 5 DSS | 23.4 DSS
CC[C@]12C=CCN3CC[C@@]4(c5cc([C@@]6(C(=O)OC)C[C@@H]7C[C@@H](C(C)(F)F)CN(Cc8c6[nH]c6ccccc86)C7)c(OC)cc5N(C)[C@H]4[C@@](O)(C(=O)OC)[C@@H]1OC(C)=O)[C@@H]32 [Vinflunine] | 6.9 DSS | 3.7 DSS | 3.9 DSS | 3.1 DSS | 7 DSS | 7.9 DSS
CCC1=C[C@@H]2CN(C1)Cc1c([nH]c3ccccc13)[C@@](C(=O)OC)(c1cc3c(cc1OC)N(C)[C@H]1[C@@](O)(C(=O)OC)[C@H](OC(C)=O)[C@]4(CC)C=CCN5CC[C@]31[C@@H]54)C2 [Vinorelbine] | 38.8 DSS | 33 DSS | 29.3 DSS | 29.3 DSS | 25.7 DSS | 25.6 DSS
CS(=O)(=O)c1ccc(C(=O)Nc2ccc(Cl)c(-c3ccccn3)c2)c(Cl)c1 [Vismodegib] | 0 DSS | 6.8 DSS | 0 DSS | 0 DSS | 0 DSS | 0 DSS
CNC(=O)c1cccc(-c2ccc3c(N4CCOC[C@@H]4C)nc(N4CCOC[C@@H]4C)nc3n2)c1 [Vistusertib] | 13.1 DSS | 7.6 DSS | 16.1 DSS | 10.6 DSS | 8.3 DSS | 7.5 DSS
CC[C@@H]1C(=O)N(C)c2cnc(Nc3ccc(C(=O)N[C@H]4CC[C@H](N5CCN(CC6CC6)CC5)CC4)cc3OC)nc2N1C(C)C [Volasertib] | 26.5 DSS | 21.5 DSS | 24.7 DSS | 16.4 DSS | 17.9 DSS | 21.4 DSS
O=C(CCCCCCC(=O)Nc1ccccc1)NO [Vorinostat] | 17.1 DSS | 22.8 DSS | 9.4 DSS | 9.5 DSS | 9.7 DSS | 5.5 DSS
Oc1nc(-c2ccc(C(F)(F)F)cc2)nc2c1CSCC2 [XAV-939] | 0.6 DSS | 0.1 DSS | 0.3 DSS | 1.1 DSS | 0 DSS | 0.5 DSS
FC(F)c1nc2ccccc2n1-c1nc(N2CCOCC2)nc(N2CCOCC2)n1 [ZSTK474] | 5.3 DSS | 0 DSS | 9.8 DSS | 15 DSS | 12.7 DSS | 10.9 DSS
